From patent US11505548B2, “Heterocyclic compounds and their use for treatment of helminthic infections and diseases” (Celgene Corporation, priority 2019, dated 2022)

Test system: microfilariae of Dirofilaria immitis
Assay: Dirofilaria immitis, Microfilaria (DiMF) Assay
Type: cell-based
Conditions: read-out: D. immitis activity level (IC50 or MED)
Summary of the method: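 D. immitis microfilariae were incubated in medium with DMSO-diluted compounds for about 72 h. Survival or paralysis was scored subjectively under the microscope. Values are Minimum Effective Dose (MED).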

SMILES	IC50 [µM]
COC(=O)c1cc(-c2nsc(Nc3ncccc3C)n2)ncc1OC(C)C [Compound 196, methyl 5-isopropoxy-2-(5-(3-methylpyridin-2-ylamino)-1,2,4-thiadiazol-3-yl)isonicotinate]	0.2 to 0.5
COC(=O)c1cc(-c2nsc(Nc3ncccc3C(C)C)n2)ncc1OC(C)C [Compound 197, methyl 5-isopropoxy-2-(5-(3-isopropylpyridin-2-ylamino)-1,2,4-thiadiazol-3-yl)isonicotinate]	< 0.2
CC(C)Oc1cnc(-c2nsc(Nc3ncccc3C(C)C)n2)cc1C(N)=O [Compound 198, 5-isopropoxy-2-(5-(3-isopropylpyridin-2-ylamino)-1,2,4-thiadiazol-3-yl)isonicotin-amide]	0.5 to 5
Cc1cccnc1Nc1nc(-c2cc(C#N)c(OC(C)C)cn2)ns1 [Compound 200, 5-isopropoxy-2-(5-(3-methylpyridin-2-ylamino)-1,2,4-thiadiazol-3-yl)isonicotino-nitrile]	0.2 to 0.5
CC(C)Oc1cnc(-c2nsc(Nc3ncccc3C(C)C)n2)cc1C#N [Compound 201, 5-isopropoxy-2-(5-(3-isopropyl-pyridin-2-ylamino)-1,2,4-thiadiazol-3-yl)isonicotino-nitrile]	< 0.2
CC(=O)N(C)c1cccnc1Nc1nc(-c2cc3c(cn2)N(C)CC3)ns1 [Compound 202, N-methyl-N-(2-(3-(1-methyl-2,3-dihydro-1H-pyrrolo[2,3-c]pyridin-5-yl)-1,2,4-thiadiazol-5-ylamino)pyridin-3-yl)acetamide]	0.5 to 5
CC(=O)N(C)c1cccnc1Nc1nc(-c2ccc(OC3CCN(C(C)C)CC3(F)F)cn2)ns1 (stereo not shown) [Compound 203, N-(2-(3-(5-(3,3-difluoro-1-isopropyl-piperidin-4-yloxy)pyridin-2-yl)-1,2,4-thiadiazol-5-ylamino)pyridin-3-yl)-N-methylacetamide]	0.5 to 5
O=C1CCCN1c1cccnc1Nc1nc(-c2ccc(NC34CC(C3)C4)cn2)ns1 [Compound 204, 1-(2-(3-(5-(bicyclo [1.1.1]pentan-1-ylamino)pyridin-2-yl)-1,2,4-thiadiazol-5-ylamino)pyridin-3-yl)pyrrolidin-2-one]	0.5 to 5
CC(=O)N(c1cccnc1Nc1nc(-c2ccc(OC(C)C)cn2)ns1)C(C)C [Compound 205, N-(2-(3-(5-isopropoxy-pyridin-2-yl)-1,2,4-thiadiazol-5-ylamino)pyridin-3-yl)-N-isopropy-lacetamide]	0.5 to 5
CC(=O)N(C)c1cccnc1Nc1nc(-c2cc3c(cn2)N(C(C)C)CC3)ns1 [Compound 206, N-(2-(3-(1-isopropyl-2,3-dihydro-1H-pyrrolo[2,3-c]pyridin-5-yl)-1,2,4-thiadiazol-5-ylamino)pyridin-3-yl)-N-methylacetamide]	< 0.2
CC(=O)N(C)c1cccnc1Nc1nc(-c2ccc(NC34CC(C3)C4)cn2)ns1 [Compound 207, N-(2-(3-(5-(bicyclo [1.1.1]pentan-1-ylamino)pyridin-2-yl)-1,2,4-thiadiazol-5-ylamino)pyridin-3-yl)-N-methylacetamide]	0.5 to 5
CC(=O)N(C)c1cccnc1Nc1nc(-c2cc(C)ccn2)ns1 [Compound 208, N-methyl-N-(2-(3-(4-methylpyridin-2-yl)-1,2,4-thiadiazol-5-ylamino)pyridin-3-yl)acetamide]	0.5 to 5
COc1ccc(-c2nsc(Nc3ccc(C(F)(F)F)cn3)n2)nc1 [Compound 209, 3-(5-methoxy-pyridin-2-yl)-N-(5-(trifluoromethyl)pyridin-2-yl)-1,2,4-thiadiazol-5-amine]	0.5 to 5
COc1cccnc1-c1nsc(Nc2cc(C(F)(F)F)c(C(C)C)cn2)n1 [Compound 210, N-(5-isopropyl-4-(trifluoromethyl)pyridin-2-yl)-3-(3-methoxy-pyridin-2-yl)-1,2,4-thiadiazol-5-amine]	0.2 to 0.5
FC(F)(F)c1ccc(Nc2nc(-c3cc(OC4CCCCC4)ccn3)ns2)nc1 [Compound 213, 3-(4-(cyclo-hexyloxy)pyridin-2-yl)-N-(5-(trifluoromethyl)pyridin-2-yl)-1,2,4-thiadiazol-5-amine]	< 0.2
COc1ccc(-c2nsc(Nc3ccc(OC(C)C)cn3)n2)nc1 [Compound 215, N-(5-isoprop-oxypyridin-2-yl)-3-(5-methoxy-pyridin-2-yl)-1,2,4-thiadiazol-5-amine]	0.5 to 5
CC(=O)N(C)c1cccnc1Nc1nc(-c2cc(C(C)C)ccn2)ns1 [Compound 216, N-(2-(3-(4-iso-propylpyridin-2-yl)-1,2,4-thiadiazol-5-ylamino)pyridin-3-yl)-N-methyl-acetamide]	0.2 to 0.5
CC(C)c1ccnc(-c2nsc(Nc3ncccc3N(C)C(=O)C3CC3)n2)c1 [Compound 217, N-(2-(3-(4-isopropylpyridin-2-yl)-1,2,4-thiadiazol-5-ylamino)pyridin-3-yl)-N-methylcyclo-propanecarbox-amide]	0.5 to 5
CC(C)Oc1cnc(-c2nsc(Nc3ncccc3C(F)(F)F)n2)cc1C(=O)N(C)C [Compound 218, 5-isopropoxy-N,N-dimethyl-2-(5-(3-(trifluoromethyl)pyridin-2-ylamino)-1,2,4-thiadiazol-3-yl)isonico-tinamide]	0.5 to 5

SMILES	IC50 [µM]
CC(C)Oc1cnc(-c2nsc(Nc3ncc(C(C)C)cc3C(F)(F)F)n2)cc1C(=O)N(C)C [Compound 219, 5-isopropoxy-2-(5-(5-isopropyl-3-(trifluoromethyl)pyridin-2-ylamino)-1,2,4-thiadiazol-3-yl)-N,N-dimethyliso-nicotinamide]	0.2 to 0.5
CC(C)Oc1cnc(-c2nsc(Nc3ncccc3C(F)(F)F)n2)cc1C(N)=O [Compound 220, 5-isopropoxy-2-(5-(3-(trifluoromethyl)pyridin-2-ylamino)-1,2,4-thiadiazol-3-yl)isonico-tinamide]	0.5 to 5
CC(C)Oc1cnc(-c2nsc(Nc3ncc(C(C)C)cc3C(F)(F)F)n2)cc1C(N)=O [Compound 221, 5-isopropoxy-2-(5-(5-isopropyl-3-(trifluoromethyl)pyridin-2-ylamino)-1,2,4-thiadiazol-3-yl)iso-nicotinamide]	0.2 to 0.5
CC(=O)N(C)c1cccnc1Nc1nc(-c2cc(C(C)C)c(C)cn2)ns1 [Compound 223, N-(2-(3-(4-isopropyl-5-methylpyridin-2-yl)-1,2,4-thiadiazol-5-ylamino)pyridin-3-yl)-N-methyl-acetamide]	0.2 to 0.5
CCOc1cnc(-c2nsc(Nc3ncccc3N(C)C(C)=O)n2)cc1C(F)(F)F [Compound 228, N-(2-(3-(5-ethoxy-4-(trifluoro-methyl)pyridin-2-yl)-1,2,4-thiadiazol-5-ylamino)pyridin-3-yl)-N-methyl-acetamide]	0.5 to 5
Cc1cc(C#N)cnc1Nc1nc(-c2ccc(OC(C)C)cn2)ns1 [Compound 231, 6-(3-(5-isoprop-oxypyridin-2-yl)-1,2,4-thiadiazol-5-ylamino)-5-methyl-nicotinonitrile]	0.2 to 0.5
c1ccc(-c2ccnc(Nc3nc(-c4ccccn4)ns3)c2)cc1 [Compound 237, N-(4-phenyl-pyridin-2-yl)-3-(pyridin-2-yl)-1,2,4-thiadiazol-5-amine]	0.2 to 0.5
Cc1ccnc(Nc2nc(-c3ncccc3C)ns2)c1 [Compound 238, 3-(3-methyl-pyridin-2-yl)-N-(4-methyl-pyridin-2-yl)-1,2,4-thiadiazol-5-amine]	0.2 to 0.5
c1ccc(-c2ccnc(Nc3nnc(-c4ccccn4)[nH]3)c2)cc1 [Compound 241, 4-phenyl-N-(5-(pyridin-2-yl)-4H-1,2,4-triazol-3-yl) pyridin-2-amine]	0.2 to 0.5
Cc1ccnc(Nc2nnc(-c3ncccc3C)[nH]2)c1 [Compound 242, 4-methyl-N-(5-(3-methyl-pyridin-2-yl)-4H-1,2,4-triazol-3-yl)pyridin-2-amine]	0.2 to 0.5
c1ccc(-c2ccnc(Nc3nc(-c4ccccn4)no3)c2)cc1 [Compound 246, N-(4-phenyl-pyridin-2-yl)-3-(pyridin-2-yl)-1,2,4-oxadiazol-5-amine]	0.5 to 5
CC(=O)N(C)c1cc(C(F)(F)F)cnc1Nc1nc(-c2ccc(OC(C)C)cn2)ns1 [Compound 247, N-(2-(3-(5-isopropoxy-pyridin-2-yl)-1,2,4-thiadiazol-5-ylamino)-5-(trifluoro-methyl)pyridin-3-yl)-N-methylacetamide]	< 0.2
CC(C)Oc1ccc(-c2nsc(Nc3ncc(C(F)(F)F)cc3N(C)C(=O)C3CC3)n2)nc1 [Compound 248, N-(2-(3-(5-isopropoxy-pyridin-2-yl)-1,2,4-thiadiazol-5-ylamino)-5-(trifluoro-methyl)pyridin-3-yl)-N-methylcyclo-propanecarbox-amide]	< 0.2
CC(=O)N(C)c1cc(C(F)(F)F)cnc1Nc1nc(-c2cc3c(cn2)N(C)CC3)ns1 [Compound 249, N-methyl-N-(2-(3-(1-methyl-2,3-dihydro-1H-pyrrolo[2,3-c]pyridin-5-yl)-1,2,4-thiadiazol-5-ylamino)-5-(trifluoromethyl)pyridin-3-yl)acetamide]	< 0.2
CC(C)Oc1cnc(-c2nsc(Nc3ncccc3C(=O)N3CCCC3)n2)cc1C(F)(F)F [Compound 251, (2-(3-(5-isopropoxy-4-(trifluoromethyl)pyridin-2-yl)-1,2,4-thiadiazol-5-ylamino)pyridin-3-yl) (pyrrolidin-1-yl)methanone]	0.5 to 5
Cc1cnc(Nc2nc(-c3cc(C(N)=O)c(OC(C)C)cn3)ns2)c(C(F)(F)F)c1 [Compound 252, 5-isopropoxy-2-(5-(5-methyl-3-(trifluoro-methyl)pyridin-2-ylamino)-1,2,4-thiadiazol-3-yl)isonico-tinamide]	0.5 to 5
COc1cnc(Nc2nc(-c3cc(C(N)=O)c(OC(C)C)cn3)ns2)c(C(F)(F)F)c1 [Compound 253, 5-isopropoxy-2-(5-(5-methoxy-3-(trifluoro-methyl)pyridin-2-ylamino)-1,2,4-thiadiazol-3-yl)isonico-tinamide]	0.5 to 5
Cc1cnc(Nc2nc(-c3cc(C(=O)N(C)C)c(OC(C)C)cn3)ns2)c(C(F)(F)F)c1 [Compound 254, 5-isopropoxy-N,N-dimethyl-2-(5-(5-methyl-3-(trifluoromethyl)pyridin-2-ylamino)-1,2,4-thiadiazol-3-yl)isonico-tinamide]	0.5 to 5
